Experiment: Compound was tested for urinary glucose excretion (mg/24 h) at 100 mg/Kg dose of compound given perorally
Type: functional, Rattus norvegicus, Urine
Parameters: unit: mg/24 h

First: CC(=O)OC[C@H]1O[C@@H](Oc2cc(C)cc(OC(C)=O)c2C(=O)CCc2ccc3occc3c2)[C@H](O)[C@@H](O)[C@@H]1O
Second: CC(=O)OC[C@H]1O[C@@H](Oc2cc(C)cc(O)c2C(=O)CCc2ccc3occc3c2)[C@H](O)[C@@H](O)[C@@H]1O
The Urinary glucose excretion of the first is lower: 183 for the first, 540 for the second.

Compared with `O=C(CCc1ccc2occc2c1)c1c(O)cccc1O[C@@H]1O[C@H](CO)[C@@H](O)[C@H](O)[C@H]1O`, `Cc1ccc(O)c(C(=O)CCc2ccc3occc3c2)c1O[C@@H]1O[C@H](CO)[C@@H](O)[C@H](O)[C@H]1O` is lower in Urinary glucose excretion: 321 for the first, 5 for the second.

Going from `CC(=O)Oc1cc(C)cc(O[C@@H]2O[C@H](CO)[C@@H](O)[C@H](OC(C)=O)[C@H]2OC(C)=O)c1C(=O)CCc1ccc2occc2c1` to `CC(=O)O[C@H]1[C@H](Oc2cc(C)cc(O)c2C(=O)CCc2ccc3occc3c2)O[C@H](CO)[C@@H](O)[C@@H]1OC(C)=O`, the Urinary glucose excretion falls from 1450 to 349.

Compared with `O=C(CCc1ccc2occc2c1)c1c(O)c(Cl)cc(Cl)c1O[C@@H]1O[C@H](CO)[C@@H](O)[C@H](O)[C@H]1O`, `O=C(CCc1ccc2occc2c1)c1c(O)cc(Cl)cc1O[C@@H]1O[C@H](CO)[C@@H](O)[C@H](O)[C@H]1O` is higher in Urinary glucose excretion: 5 for the first, 8 for the second.

Compared with `C=CCc1ccc(O[C@@H]2O[C@H](CO)[C@@H](O)[C@H](O)[C@H]2O)c(C(=O)CCc2ccc3occc3c2)c1O`, `CCc1ccc(O[C@@H]2O[C@H](CO)[C@@H](O)[C@H](O)[C@H]2O)c(C(=O)CCc2ccc3occc3c2)c1O` is lower in Urinary glucose excretion: 5 for the first, 1 for the second.

Compared with `CC(C)c1cc(O)c(C(=O)CCc2ccc3occc3c2)c(O[C@@H]2O[C@H](CO)[C@@H](O)[C@H](O)[C@H]2O)c1`, `Cc1cc(O)c(C(=O)CCc2ccc3occc3c2)c(O[C@@H]2O[C@H](CO)[C@@H](O)[C@H](O)[C@H]2O)c1` is higher in Urinary glucose excretion: 128 for the first, 935 for the second.

`COc1cc(O)c(C(=O)CCc2ccc3occc3c2)c(O[C@@H]2O[C@H](CO)[C@@H](O)[C@H](O)[C@H]2O)c1` and `O=C(CCc1ccc2occc2c1)c1c(O)cc(O)cc1O[C@@H]1O[C@H](CO)[C@@H](O)[C@H](O)[C@H]1O` are the same in Urinary glucose excretion: 38 for the first, 38 for the second.

First: CC(=O)O[C@H]1[C@H](Oc2cc(C)cc(O)c2C(=O)CCc2ccc3occc3c2)O[C@H](CO)[C@@H](O)[C@@H]1O
Second: COC(=O)O[C@H]1[C@H](O)[C@@H](O)[C@H](Oc2cc(C)cc(O)c2C(=O)CCc2ccc3occc3c2)O[C@@H]1CO
The Urinary glucose excretion of the first is lower: 482 for the first, 1407 for the second.

Compared with `COCC(=O)OC[C@H]1O[C@@H](Oc2cc(C)cc(O)c2C(=O)CCc2ccc3occc3c2)[C@H](O)[C@@H](O)[C@@H]1O`, `COC(=O)OC[C@H]1O[C@@H](Oc2cc(C)cc(O)c2C(=O)CCc2ccc3occc3c2)[C@H](O)[C@@H](O)[C@@H]1O` is higher in Urinary glucose excretion: 721 for the first, 1192 for the second.

Going from `COC1(C)OC[C@H]2O[C@@H](Oc3cc(C)cc(O)c3C(=O)CCc3ccc4occc4c3)[C@H](O)[C@@H](O)[C@@H]2O1` (some centres undefined) to `Cc1cc(O)c(C(=O)CCc2ccc3occc3c2)c(O[C@@H]2O[C@H](COC(=O)OC(C)C)[C@@H](O)[C@H](O)[C@H]2O)c1`, the Urinary glucose excretion rises from 729 to 980.

Going from `COCCOC(=O)OC[C@H]1O[C@@H](Oc2cc(C)cc(O)c2C(=O)CCc2ccc3occc3c2)[C@H](O)[C@@H](O)[C@@H]1O` to `CCOC(=O)OC[C@H]1O[C@@H](Oc2cc(C)cc(O)c2C(=O)CCc2ccc3occc3c2)[C@H](O)[C@@H](O)[C@@H]1O`, the Urinary glucose excretion falls from 817 to 805.

Compared with `CCCc1cc(O)c(C(=O)CCc2ccc3occc3c2)c(O[C@@H]2O[C@H](CO)[C@@H](O)[C@H](O)[C@H]2O)c1`, `CCc1cc(O)c(C(=O)CCc2ccc3occc3c2)c(O[C@@H]2O[C@H](CO)[C@@H](O)[C@H](O)[C@H]2O)c1` is higher in Urinary glucose excretion: 27 for the first, 864 for the second.

Source: ChEMBL document CHEMBL1132546, “Na(+)-glucose cotransporter (SGLT) inhibitors as antidiabetic agents. 4. Synthesis and pharmacological properties of 4'-dehydroxyphlorizin derivatives substituted on the B ring” (1999)
